Legend:
atuA = atuA promoter-luxCDABE biosensor gene expression; type: cell-based; details: Pseudomonas OST1909
Method: Routine microbiology and gene expression assays using 96 well plates were performed to grow the biosensor strains in the presence of environmental water samples, and the light output from the biosensor was used as a proxy to indicate the concentration of naphthenic acids in the water.
In the fourth step, all plasmid-encoded genetic circuits were introduced back into Pseudomonas OST1909 for validation.
“SIGMA” and “Acros” indicate two sources of primarily acyclic NA mixtures. […] A post hoc Tukey HSD test was conducted with each compound and mixture to test significant relationships between each group (α=0.05, n=3).

atu operon = details: stated as known; cited from earlier work

| Structure (SMILES) | induction of the atu operon / atu genes (atuA) | induction of atu genes in Pseudomonas aeruginosa by acyclic terpenes (atu operon) |
| --- | --- | --- |
| CC(C)=CCCC(C)CC(=O)O (centres unmarked) [citronellic acid] | induce expression | – |
| CC(C)=CCCC(C)CCO (centres unmarked) [citronellol] | do not induce | induced |
| CC(C)=CCC/C(C)=C/CO [geraniol] | do not induce | induced |
